Where “and” joins values, the source holds several entries; their conditions need not be identical. Identical values can stand only once.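 Cultured in 96-well plates, cells were exposed to test compound for 48 hours across five concentrations. GI50 = concentration required for 50% inhibition of growth. TGI is the concentration that stops growth completely.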
Key:
Test in all cases: NCI tumour cell line growth inhibition, 48 h
BT-549 breast = tested on: BT-549 breast
OVCAR-5 ovarian = tested on: OVCAR-5 ovarian
HOP-92 NSCLC = tested on: HOP-92 NSCLC
OVCAR-3 ovarian = tested on: OVCAR-3 ovarian
SN12C renal = tested on: SN12C renal
HCT-116 colon = tested on: HCT-116 colon
HCC-2998 colon = tested on: HCC-2998 colon
A498 renal = tested on: A498 renal
K-562 leukemia = tested on: K-562 leukemia
NCI-H460 lung = tested on: NCI-H460 lung
MALME-3M melanoma = tested on: MALME-3M melanoma
SNB-75 CNS = tested on: SNB-75 CNS
TK-10 renal = tested on: TK-10 renal
NCI-H226 lung = tested on: NCI-H226 lung
NCI-H23 lung = tested on: NCI-H23 lung
U251 CNS = tested on: U251 CNS
SF-268 CNS = tested on: SF-268 CNS
CCRF-CEM leukemia = tested on: CCRF-CEM leukemia
KM12 colon = tested on: KM12 colon
HCT-15 colon = tested on: HCT-15 colon
SK-MEL-28 melanoma = tested on: SK-MEL-28 melanoma
MDA-N = tested on: MDA-N
PC-3 prostate = tested on: PC-3 prostate
DU-145 prostate = tested on: DU-145 prostate
ACHN renal = tested on: ACHN renal
UO-31 renal = tested on: UO-31 renal
SNB-19 CNS = tested on: SNB-19 CNS
HL-60(TB) leukemia = tested on: HL-60(TB) leukemia
UACC-257 melanoma = tested on: UACC-257 melanoma
IGROV1 ovarian = tested on: IGROV1 ovarian
SW-620 colon = tested on: SW-620 colon
OVCAR-8 ovarian = tested on: OVCAR-8 ovarian
OVCAR-4 ovarian = tested on: OVCAR-4 ovarian
M14 melanoma = tested on: M14 melanoma
SK-MEL-2 melanoma = tested on: SK-MEL-2 melanoma
MDA-MB-231 breast = tested on: MDA-MB-231 breast
NCI/ADR-RES ovarian = tested on: NCI/ADR-RES ovarian
NCI-H522 lung = tested on: NCI-H522 lung
LOX IMVI melanoma = tested on: LOX IMVI melanoma
MCF7 breast = tested on: MCF7 breast
SF-295 CNS = tested on: SF-295 CNS
MDA-MB-435 = tested on: MDA-MB-435
HS 578T breast = tested on: HS 578T breast
SK-OV-3 ovarian = tested on: SK-OV-3 ovarian
SK-MEL-5 melanoma = tested on: SK-MEL-5 melanoma
CAKI-1 renal = tested on: CAKI-1 renal
RXF 393 renal = tested on: RXF 393 renal
EKVX NSCLC = tested on: EKVX NSCLC
SR leukemia = tested on: SR leukemia
SF-539 CNS = tested on: SF-539 CNS
786-0 renal = tested on: 786-0 renal
T-47D breast = tested on: T-47D breast
HT29 colon = tested on: HT29 colon
RPMI-8226 leukemia = tested on: RPMI-8226 leukemia
COLO 205 colon = tested on: COLO 205 colon
UACC-62 melanoma = tested on: UACC-62 melanoma
A549 NSCLC = tested on: A549 NSCLC
HOP-62 NSCLC = tested on: HOP-62 NSCLC
MOLT-4 leukemia = tested on: MOLT-4 leukemia

CCCC(=O)Nc1cc(C(=O)N2C[C@@H]3C[C@]34C2=CC(=O)c2[nH]cc(C)c24)n(COC)c1
GI50 (BT-549 breast): 3 µM | TGI (BT-549 breast): 29.5 µM and 11.3 µM | GI50 (OVCAR-5 ovarian): 3.86 µM | TGI (OVCAR-5 ovarian): 50 µM and 10.6 µM | GI50 (HOP-92 NSCLC): 3.22 µM | TGI (HOP-92 NSCLC): 11.2 µM and 7.85 µM | GI50 (OVCAR-3 ovarian): 2.58 µM | TGI (OVCAR-3 ovarian): 24.4 µM and 5.09 µM | GI50 (SN12C renal): 4.45 µM | TGI (SN12C renal): 31.7 µM and 16.1 µM | GI50 (HCT-116 colon): 2.69 µM | TGI (HCT-116 colon): 50 µM and 11.8 µM | GI50 (HCC-2998 colon): 2.88 µM | TGI (HCC-2998 colon): 9.71 µM and 10.2 µM | TGI (A498 renal): 19.2 µM and 25.1 µM | GI50 (K-562 leukemia): 2.04 µM | TGI (K-562 leukemia): 50 µM and > 100 µM | GI50 (NCI-H460 lung): 2.62 µM | TGI (NCI-H460 lung): 16.6 µM and 7.35 µM | TGI (MALME-3M melanoma): 10.9 µM | GI50 (SNB-75 CNS): 2.99 µM | TGI (SNB-75 CNS): 17.7 µM and 12.3 µM | GI50 (TK-10 renal): 3.3 µM | TGI (TK-10 renal): 23 µM and 7.37 µM | TGI (NCI-H226 lung): 42.1 µM | GI50 (NCI-H23 lung): 1.38 µM | TGI (NCI-H23 lung): 9.19 µM and 3.6 µM | GI50 (U251 CNS): 2.39 µM | TGI (U251 CNS): 20.6 µM and 6.21 µM | GI50 (SF-268 CNS): 3.46 µM | TGI (SF-268 CNS): 10.6 µM and 33.3 µM | GI50 (CCRF-CEM leukemia): 0.495 µM | GI50 (KM12 colon): 4.58 µM | TGI (KM12 colon): 20.4 µM and 21.5 µM | GI50 (HCT-15 colon): 13.9 µM | TGI (HCT-15 colon): 50 µM and 33.3 µM | GI50 (SK-MEL-28 melanoma): 3.08 µM | TGI (SK-MEL-28 melanoma): 34.2 µM and 10.7 µM | GI50 (MDA-N): 3.66 µM | TGI (MDA-N): 19.6 µM and 13.3 µM | GI50 (PC-3 prostate): 2.86 µM | TGI (PC-3 prostate): 37.5 µM and 13.2 µM | GI50 (DU-145 prostate): 3.18 µM | TGI (DU-145 prostate): 27.3 µM and 20.9 µM | GI50 (ACHN renal): 3.62 µM | TGI (ACHN renal): 24.6 µM and 26.1 µM | GI50 (UO-31 renal): 26.7 µM | TGI (UO-31 renal): 17.3 µM and 94.4 µM | GI50 (SNB-19 CNS): 3.36 µM | TGI (SNB-19 CNS): 50 µM and 14.5 µM | TGI (HL-60(TB) leukemia): 7.8 µM | GI50 (UACC-257 melanoma): 3.03 µM | TGI (UACC-257 melanoma): 32.4 µM and 6.62 µM | GI50 (IGROV1 ovarian): 1.35 µM | GI50 (SW-620 colon): 2.7 µM | TGI (SW-620 colon): 50 µM and 19.9 µM | TGI (OVCAR-8 ovarian): 9.06 µM and 5.87 µM | TGI (OVCAR-4 ovarian): 20.3 µM and 19.9 µM | GI50 (M14 melanoma): 2.05 µM | TGI (M14 melanoma): 50 µM and 5.96 µM | GI50 (SK-MEL-2 melanoma): 1.98 µM | TGI (SK-MEL-2 melanoma): 12.2 µM and 3.46 µM | GI50 (MDA-MB-231 breast): 2.94 µM | TGI (MDA-MB-231 breast): 29.5 µM and 8.01 µM | GI50 (NCI/ADR-RES ovarian): 19.7 µM | TGI (NCI/ADR-RES ovarian): 50 µM and 47.7 µM | TGI (NCI-H522 lung): 3.57 µM and 2.43 µM | GI50 (LOX IMVI melanoma): 2.06 µM | TGI (LOX IMVI melanoma): 30 µM and 7.17 µM | TGI (MCF7 breast): 50 µM and 11.9 µM | GI50 (SF-295 CNS): 5.4 µM | TGI (SF-295 CNS): 50 µM and 20.4 µM | GI50 (MDA-MB-435): 3.19 µM | TGI (MDA-MB-435): 19.2 µM and 12.5 µM | GI50 (HS 578T breast): 4.31 µM | TGI (HS 578T breast): 38.2 µM and 27.1 µM | GI50 (SK-OV-3 ovarian): 4.32 µM | TGI (SK-OV-3 ovarian): 43.8 µM and 17.9 µM | TGI (SK-MEL-5 melanoma): 5.38 µM and 3.24 µM | GI50 (CAKI-1 renal): 4.25 µM | TGI (CAKI-1 renal): 13 µM and 17.3 µM | TGI (RXF 393 renal): 9.21 µM and 3.33 µM | GI50 (EKVX NSCLC): 5.62 µM | TGI (EKVX NSCLC): 30 µM and 25.2 µM | TGI (SR leukemia): 2.09 µM | GI50 (SF-539 CNS): 2.15 µM | TGI (SF-539 CNS): 31.1 µM and 5.28 µM | GI50 (786-0 renal): 1.81 µM | TGI (786-0 renal): 15.2 µM and 3.72 µM | GI50 (T-47D breast): 2.38 µM | TGI (T-47D breast): 30.2 µM and 10.6 µM | TGI (HT29 colon): 24.6 µM and 29 µM | GI50 (RPMI-8226 leukemia): 2.57 µM | TGI (RPMI-8226 leukemia): 37.3 µM and 8.36 µM | GI50 (COLO 205 colon): 1.83 µM | TGI (COLO 205 colon): 12.9 µM and 4.26 µM | GI50 (UACC-62 melanoma): 2.84 µM | TGI (UACC-62 melanoma): 13.5 µM and 8.75 µM | GI50 (A549 NSCLC): 16.6 µM | TGI (A549 NSCLC): 40.7 µM and 47.9 µM | GI50 (HOP-62 NSCLC): 2.5 µM | TGI (HOP-62 NSCLC): 50 µM and 8.13 µM | GI50 (MOLT-4 leukemia): 0.523 µM | TGI (MOLT-4 leukemia): 3.3 µM and 23.2 µM
